Earlier results as cited in patent publication US10052328B2, “Therapeutic composition to treat lesions caused by Herpes Simplex Virus” (G2L TOUCH, INC., priority 2009, dated 2018).

Tested on: cold sore (labial herpes simplex)
Settings: commercial topical cream, versus untreated cold sores

SMILES: Nc1nc(=O)c2ncn(CCC(CO)CO)c2[nH]1 [PCV, 2-amino-9-[4-hydroxy-3-(hydroxymethyl)butyl]-6,9-dihydro-3H-purin-6-one]
- reduction of the duration of a cold sore / lesion, on average: 0.5 days
